Data: PubChem BioAssay (NCI)
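Growth conditions: 96-well plates. Treatment: test compound, 48 hours, 5 concentrations. Analysis: linear interpolation between bracketing concentrations; unreached endpoints set to highest concentration. The concentration for 50% growth inhibition is given as GI50. The concentration for full growth arrest is given as TGI.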

Columns and labels:
Assay in all cases: DTP human tumour cell line panel, 48 h
[1] = test system: HCT-15 colon
[2] = test system: RXF 393 renal
[3] = test system: HOP-92 NSCLC
[4] = test system: SK-MEL-28 melanoma
[5] = test system: A498 renal
[6] = test system: SR leukemia
[7] = test system: HOP-62 NSCLC
[8] = test system: SK-MEL-2 melanoma
[9] = test system: BT-549 breast
[10] = test system: ACHN renal
[11] = test system: LOX IMVI melanoma
[12] = test system: SK-OV-3 ovarian
[13] = test system: OVCAR-4 ovarian
[14] = test system: RPMI-8226 leukemia
[15] = test system: HS 578T breast
[16] = test system: MDA-MB-231 breast
[17] = test system: UO-31 renal
[18] = test system: SF-268 CNS
[19] = test system: K-562 leukemia
[20] = test system: SK-MEL-5 melanoma
[21] = test system: SNB-75 CNS
[22] = test system: SW-620 colon
[23] = test system: NCI-H226 lung
[24] = test system: UACC-257 melanoma
[25] = test system: HCC-2998 colon
[26] = test system: 786-0 renal
[27] = test system: CCRF-CEM leukemia
[28] = test system: OVCAR-3 ovarian
[29] = test system: NCI-H23 lung
[30] = test system: SF-295 CNS
[31] = test system: NCI/ADR-RES ovarian
[32] = test system: MOLT-4 leukemia
[33] = test system: SF-539 CNS
[34] = test system: UACC-62 melanoma
[35] = test system: DU-145 prostate
[36] = test system: NCI-H522 lung
[37] = test system: IGROV1 ovarian
[38] = test system: TK-10 renal
[39] = test system: OVCAR-5 ovarian
[40] = test system: HT29 colon
[41] = test system: MCF7 breast
[42] = test system: SNB-19 CNS
[43] = test system: OVCAR-8 ovarian
[44] = test system: SN12C renal
[45] = test system: NCI-H460 lung
[46] = test system: PC-3 prostate
[47] = test system: COLO 205 colon
[48] = test system: A549 NSCLC
[49] = test system: M14 melanoma
[50] = test system: HL-60(TB) leukemia
[51] = test system: MDA-MB-468 breast
[52] = test system: U251 CNS
[53] = test system: T-47D breast
[54] = test system: MDA-MB-435
[55] = test system: EKVX NSCLC
[56] = test system: CAKI-1 renal
[57] = test system: MALME-3M melanoma
[58] = test system: KM12 colon

CN1CCN(c2ccc(Nc3nc(NCCCNC(=O)c4ccc(F)cc4)c4sccc4n3)cc2)CC1
GI50 [1]: 2.31 µM
TGI [1]: 8.13 µM
GI50 [2]: 1.45 µM
TGI [2]: 3.25 µM
GI50 [3]: 7.45 µM
TGI [3]: 28.2 µM
GI50 [4]: 1.77 µM
TGI [4]: 3.45 µM
GI50 [5]: 18.8 µM
TGI [5]: 32.8 µM
GI50 [6]: 1.71 µM
TGI [6]: 4.6 µM
GI50 [7]: 16.4 µM
TGI [7]: 35.7 µM
GI50 [8]: 14.5 µM
TGI [8]: 28.3 µM
GI50 [9]: 4.39 µM
TGI [9]: 16.7 µM
GI50 [10]: 3.04 µM
TGI [10]: 13.2 µM
GI50 [11]: 1.67 µM
TGI [11]: 3.31 µM
GI50 [12]: 16.5 µM
TGI [12]: 34.1 µM
GI50 [13]: 5.84 µM
TGI [13]: 29.5 µM
GI50 [14]: 1.79 µM
TGI [14]: 4.25 µM
GI50 [15]: 6.09 µM
TGI [15]: 32.2 µM
GI50 [16]: 4.15 µM
TGI [16]: 14.5 µM
GI50 [17]: 11.7 µM
TGI [17]: 23.9 µM
GI50 [18]: 4.38 µM
TGI [18]: 22.4 µM
GI50 [19]: 1.41 µM
TGI [19]: 4.72 µM
GI50 [20]: 2.08 µM
TGI [20]: 4.95 µM
GI50 [21]: 7.14 µM
TGI [21]: 21.5 µM
GI50 [22]: 3.04 µM
TGI [22]: 10.2 µM
GI50 [23]: 11.3 µM
TGI [23]: 23.9 µM
GI50 [24]: 2.14 µM
TGI [24]: 4.94 µM
GI50 [25]: 3.38 µM
TGI [25]: 11.9 µM
GI50 [26]: 1.91 µM
TGI [26]: 5.45 µM
GI50 [27]: 1.92 µM
TGI [27]: 4.99 µM
GI50 [28]: 3.52 µM
TGI [28]: 13.3 µM
GI50 [29]: 10.3 µM
TGI [29]: 24.9 µM
GI50 [30]: 1.83 µM
TGI [30]: 4.2 µM
GI50 [31]: 4.18 µM
TGI [31]: 24.9 µM
GI50 [32]: 1.67 µM
TGI [32]: 5.38 µM
GI50 [33]: 1.69 µM
TGI [33]: 3.16 µM
GI50 [34]: 2.04 µM
TGI [34]: 4.58 µM
GI50 [35]: 7.65 µM
TGI [35]: 21 µM
GI50 [36]: 1.77 µM
TGI [36]: 3.92 µM
GI50 [37]: 5.98 µM
TGI [37]: 19.9 µM
GI50 [38]: 5.55 µM
TGI [38]: 17.7 µM
GI50 [39]: 11.7 µM
TGI [39]: 26 µM
GI50 [40]: 2.46 µM
TGI [40]: 7.78 µM
GI50 [41]: 2.67 µM
TGI [41]: 11.1 µM
GI50 [42]: 7.97 µM
TGI [42]: 20.6 µM
GI50 [43]: 4.14 µM
TGI [43]: 51.2 µM
GI50 [44]: 10.5 µM
TGI [44]: 23.3 µM
GI50 [45]: 3.25 µM
TGI [45]: 12.8 µM
GI50 [46]: 3.19 µM
TGI [46]: 16.6 µM
GI50 [47]: 5.29 µM
TGI [47]: 20.5 µM
GI50 [48]: 4.77 µM
TGI [48]: 22.2 µM
GI50 [49]: 1.83 µM
TGI [49]: 3.59 µM
GI50 [50]: 1.52 µM
TGI [50]: 3.39 µM
GI50 [51]: 1.46 µM
TGI [51]: 4.82 µM
GI50 [52]: 3.01 µM
TGI [52]: 10.5 µM
GI50 [53]: 2.64 µM
TGI [53]: 13.7 µM
GI50 [54]: 4.3 µM
TGI [54]: 16.1 µM
GI50 [55]: 12.4 µM
TGI [55]: 25.5 µM
GI50 [56]: 3.43 µM
TGI [56]: 15.2 µM
GI50 [57]: 1.79 µM
TGI [57]: 3.2 µM
GI50 [58]: 4.32 µM
TGI [58]: 18.2 µM
